The source of these data is article PMC7693658, “SaUspA, the Universal Stress Protein of Sulfolobus acidocaldarius Stimulates the Activity of the PP2A Phosphatase and Is Involved in Growth at High Salinity” (Frontiers in Microbiology, 2020).

One series concerns the target T1, ArnD (Sulfolobus acidocaldarius, UniProt Q4J879).
T1 construct: gene Saci_1694; purified kinase; expression in E. coli Rosetta (DE3)/pLysS, construct details in earlier work
T1 sequence (Q4J879 1-413): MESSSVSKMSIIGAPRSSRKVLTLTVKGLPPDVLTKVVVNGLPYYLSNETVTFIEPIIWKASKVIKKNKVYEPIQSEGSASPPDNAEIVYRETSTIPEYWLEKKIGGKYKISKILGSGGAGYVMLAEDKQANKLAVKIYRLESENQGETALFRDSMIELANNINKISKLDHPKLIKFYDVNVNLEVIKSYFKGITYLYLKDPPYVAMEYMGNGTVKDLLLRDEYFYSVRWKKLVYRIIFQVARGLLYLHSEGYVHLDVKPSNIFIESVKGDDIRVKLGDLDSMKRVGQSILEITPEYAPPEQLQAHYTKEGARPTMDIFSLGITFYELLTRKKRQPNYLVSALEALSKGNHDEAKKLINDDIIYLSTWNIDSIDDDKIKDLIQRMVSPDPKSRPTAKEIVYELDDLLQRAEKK
In words: in vitro phosphorylation, autophosphorylation. It is filed as biochemical. The settings on record: 1 mM MnCl2, pH 8, 55°C; labelled compound.

In the next series the target is T2, ArnC (Sulfolobus acidocaldarius, UniProt Q4J9J0).
T2 construct: gene Saci_1193; purified kinase; expression in E. coli Rosetta (DE3)/pLysS, construct details in earlier work
T2 sequence (Q4J9J0 1-663): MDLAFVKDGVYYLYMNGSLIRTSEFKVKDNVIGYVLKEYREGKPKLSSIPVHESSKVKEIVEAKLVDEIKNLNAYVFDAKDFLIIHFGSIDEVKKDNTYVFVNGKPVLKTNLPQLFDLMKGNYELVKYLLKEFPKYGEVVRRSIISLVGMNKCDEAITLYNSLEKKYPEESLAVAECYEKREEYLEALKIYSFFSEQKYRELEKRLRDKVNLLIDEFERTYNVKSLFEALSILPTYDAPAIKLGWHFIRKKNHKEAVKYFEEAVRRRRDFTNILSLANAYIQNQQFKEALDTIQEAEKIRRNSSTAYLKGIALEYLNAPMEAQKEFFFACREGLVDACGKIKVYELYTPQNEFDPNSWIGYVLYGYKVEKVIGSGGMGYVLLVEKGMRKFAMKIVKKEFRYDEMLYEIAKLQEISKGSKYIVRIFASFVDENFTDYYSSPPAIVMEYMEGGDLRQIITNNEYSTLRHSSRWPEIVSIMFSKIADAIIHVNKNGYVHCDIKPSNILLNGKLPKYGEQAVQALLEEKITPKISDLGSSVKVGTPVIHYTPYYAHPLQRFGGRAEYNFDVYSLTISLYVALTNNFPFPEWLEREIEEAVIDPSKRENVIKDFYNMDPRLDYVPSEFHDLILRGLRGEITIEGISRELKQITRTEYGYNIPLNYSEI
The series can be described thus: in vitro phosphorylation, autophosphorylation. It is filed as biochemical. The settings on record: 1 mM MnCl2, pH 8, 55°C; labelled compound.

A further series addresses T3, SaUspA (Sulfolobus acidocaldarius, UniProt Q4JAC8).
T3 construct: gene Saci_0887
T3 sequence (Q4JAC8 1-128): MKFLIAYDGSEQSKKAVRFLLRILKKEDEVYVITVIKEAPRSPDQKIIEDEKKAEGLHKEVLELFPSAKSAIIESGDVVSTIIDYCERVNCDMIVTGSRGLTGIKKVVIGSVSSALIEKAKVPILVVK
In words: Ni-NTA co-purification with PP2A-his, Western blot. The settings on record: 1 mM ATP, 5 mM MgCl2, pH 8; ATP increases binding to PP2A. For orientation: Immunoblotting shows a protein as a band on a membrane.

Series [1] deals with the molecule itself. The series can be described thus: SEC; purified Strep II-tagged SaUspA on a Superdex 200 10/300 GL column in lysis buffer (50 mM Tris pH8, 150 mM NaCl); standards of 158, 44, 17 and 1.35 kDa; peak at about 30 kDa against 16.2 kDa for the monomer.

As to `Nc1ncnc2c1ncn2[C@@H]1O[C@H](COP(=O)(O)OP(=O)(O)OP(=O)(O)O)[C@@H](O)[C@H]1O` [ATP], the “in vitro phosphorylation, autophosphorylation” value is “autophosphorylation was detected for both ArnC and ArnD” on ArnD; “autophosphorylation was detected for both ArnC and ArnD” on ArnC. Further, at SaUspA, the “Ni-NTA co-purification with PP2A-his, Western blot” value is recorded as “This indicated that ATP-binding of SaUspA enhanced its interaction with PP2A”.

B1: C-terminally StrepII-tagged SaUspA (universal stress protein UspA of Sulfolobus acidocaldarius, Saci_0887) (natural protein, UniProt Q4JAC8 1-128, looked up)
chain: MKFLIAYDGSEQSKKAVRFLLRILKKEDEVYVITVIKEAPRSPDQKIIEDEKKAEGLHKEVLELFPSAKSAIIESGDVVSTIIDYCERVNCDMIVTGSRGLTGIKKVVIGSVSSALIEKAKVPILVVK
notes: SaUspA (UspA, Saci_0887), universal stress protein of Sulfolobus acidocaldarius; printed molecular weight 16.2 kDa; Made nucleotide free by ammonium sulfate precipitation; in some samples pre-incubated with 1 mM ATP and 5 mM MgCl2; also called SaUspA-Strep; SaUspA^WT; not shown: StrepII, C-terminal, kept
Consider B1, for which the “stoichiometry N” value in series [1] came out at 2.

What is called stoichiometry N is a count of units in the complex or per binding partner.
